From patent US6211155A, “Peptide conjugates derived from thymic hormones, their use as a medicament and compositions containing them” (Institut European de Biologie Cellulaire, priority 1995, dated 2001)
Where no end group is shown, it is not given here.

Columns and labels:
[1] = tested on: Thy 1.2+ thymocytes of the epidermis; assay: Thy 1.2+ epidermal cell density after topical application to mouse ear (immunofluorescence); assay type: in vivo, C57-BL/6 mice; conditions: for Number of Thy 1.2+ cells per mm^2 of epidermis, batch 1 / Number of Thy 1.2+ cells per mm^2 of epidermis, batch 2 / Number of Thy 1.2+ cells per mm^2 of epidermis, batch 3 / Number of Thy 1.2+ cells per mm^2 of epidermis, batch 4 / Number of Thy 1.2+ cells per mm^2 of epidermis, Mean: C 57 BL/6 mice; for Number of Thy 1.2+ cells per mm^2 of epidermis, Mean: 4 batches; for Thy 1.2+ cells % T: relative to PG controls
Method: (§1) I--Experimental Samples--Code: ETF
(§2) In solution in propylene glycol at a concentration of 10^-5 M/ml
(§3) 5 to 7-week-old male C 57-BL/6 mice, which are divided into groups of 4 per cage, and which have free access to water and food and which are subjected to a photoperiod of 12 h of light per 24 hours, are given a topical application of the peptide in propylene glycol (50 μl vol) on the dorsal surface of the ear daily for 5 consecutive days.
(§4) The animals are sacrificed on day 6. The ears are removed, with the dorsal and ventral surfaces being separated.
(§5) The tissues of the dorsal surface are immersed in Na EDTA (0.020 M) at 37° C. for 2 h.
(§6) After incubation, the epidermis is removed in the form of an intact sheet, fixed with acetone and rehydrated in PBS (phosphate buffer).
(§7) The Thy 1-2+ and Ia+ EDC (epidermal dendritic cells) are identified by indirect immunofluorescence double labeling.
(§8) In the case of each epidermal sheet, the number of cells per mm^2 is determined using the peripheral regions of the same surface.
The Thy 1.2+ EDC were identified by indirect immunofluorescence double labeling. The epidermal sheets were fixed with acetone and then rehydrated in PBS.
The tissues were labeled simultaneously, at 4° C. for 16 h, with mouse anti-Thy 1.2+ antibody which was diluted 1:100. The tissue samples were washed three times in PBS for 60 min and then incubated, at 37° C. for 60 min, either with goat antimouse antibody which was coupled to rhodamine and diluted 1:20, or with goat antirabbit antibody which was coupled to fluorescein (fluorescine and diluted 1:20 in PBS. The tissues were then washed in PBS before being mounted as previously described.
(§9) In the case of each epidermal sheet, the number of Ia+ Langerhans cells or Thy 1.2+ EDCs per square millimeter was determined by means of immunofluorescence, using a confocal Zeiss microscope which was equipped for this purpose, in four peripheral areas of the same surface. At least four animals were studied in each of the groups. The density of Ia+ Langerhans cells and Thy 1.2+ EDCs is shown for each measurement.

Ia+ Langerhans cells = assay: Ia+ Langerhans cell density after topical application to mouse ear; assay type: in vivo, C57-BL/6 mice; conditions: for Number of Ia+ cells per mm^2 of epidermis, batch 1 / Number of Ia+ cells per mm^2 of epidermis, batch 2 / Number of Ia+ cells per mm^2 of epidermis, batch 3 / Number of Ia+ cells per mm^2 of epidermis, batch 4 / Number of Ia+ cells per mm^2 of epidermis, Mean: C 57 BL/6 mice; for Number of Ia+ cells per mm^2 of epidermis, Mean: 4 batches; for Ia+ cells %: relative to PG controls
Method: as §1, §2, §3, §4, §5, §6, §7, §8
The EDC (epidermal dendritic cells) carrying the Ia+ marker were identified using an anti-Ia+ monoclonal antibody.
The epidermal sheets are fixed with acetone and then incubated, at 37° C. for 1 h, in the presence of the anti-Ia+ monoclonal antibody, which has been labeled by the indirect immunoperoxidase method (Kit).
After having been incubated at 37° C. for 10 minutes with a solution of aminoethylcarbazole, the preparation is washed with PBS.
as §9

| Substance | Number of Thy 1.2+ cells per mm^2 of epidermis, batch 1 ([1]; dose 0.10 Nanog.) | Number of Thy 1.2+ cells per mm^2 of epidermis, batch 2 ([1]; dose 0.10 Nanog.) | Number of Thy 1.2+ cells per mm^2 of epidermis, batch 3 ([1]; dose 0.10 Nanog.) | Number of Thy 1.2+ cells per mm^2 of epidermis, batch 4 ([1]; dose 0.10 Nanog.) | Number of Thy 1.2+ cells per mm^2 of epidermis, Mean ([1]; dose 0.10 Nanog.) | Thy 1.2+ cells % T ([1]; dose 0.10 Nanog.) | Number of Thy 1.2+ cells per mm^2 of epidermis, batch 1 ([1]; dose 0.50 Nanog.) | Number of Thy 1.2+ cells per mm^2 of epidermis, batch 2 ([1]; dose 0.50 Nanog.) | Number of Thy 1.2+ cells per mm^2 of epidermis, batch 3 ([1]; dose 0.50 Nanog.) | Number of Thy 1.2+ cells per mm^2 of epidermis, batch 4 ([1]; dose 0.50 Nanog.) | Number of Thy 1.2+ cells per mm^2 of epidermis, Mean ([1]; dose 0.50 Nanog.) | Thy 1.2+ cells % T ([1]; dose 0.50 Nanog.) | Number of Thy 1.2+ cells per mm^2 of epidermis, batch 1 ([1]; dose 1.00 Nanog.) | Number of Thy 1.2+ cells per mm^2 of epidermis, batch 2 ([1]; dose 1.00 Nanog.) | Number of Thy 1.2+ cells per mm^2 of epidermis, batch 3 ([1]; dose 1.00 Nanog.) | Number of Thy 1.2+ cells per mm^2 of epidermis, batch 4 ([1]; dose 1.00 Nanog.) | Number of Thy 1.2+ cells per mm^2 of epidermis, Mean ([1]; dose 1.00 Nanog.) | Thy 1.2+ cells % T ([1]; dose 1.00 Nanog.) | Number of Ia+ cells per mm^2 of epidermis, batch 1 (Ia+ Langerhans cells; dose 0.10 Nanog.) | Number of Ia+ cells per mm^2 of epidermis, batch 2 (Ia+ Langerhans cells; dose 0.10 Nanog.) | other results |
| --- | --- | --- | --- | --- | --- | --- | --- | --- | --- | --- | --- | --- | --- | --- | --- | --- | --- | --- | --- | --- | --- |
| Adipoyl-Ala-Lys-Ser-Gln-Gly-Gly-Ser-Asn-NH2 (AKSQGGSN-NH2; not fully specified (N-terminus)) [ETF-III, A of the tested sample not restated] | 168 cells per mm^2 | 165 cells per mm^2 | 180 cells per mm^2 | 176 cells per mm^2 | 172.25 cells per mm^2 | 95% | 190 cells per mm^2 | 190 cells per mm^2 | 205 cells per mm^2 | 200 cells per mm^2 | 196.25 cells per mm^2 | 122% | 200 cells per mm^2 | 220 cells per mm^2 | 216 cells per mm^2 | 210 cells per mm^2 | 211.50 cells per mm^2 | 140% | 376 cells per mm^2 | 382 cells per mm^2 | Number of Ia+ cells per mm^2 of epidermis, batch 3 (Ia+ Langerhans cells; dose 0.10 Nanog.): 387 cells per mm^2; Number of Ia+ cells per mm^2 of epidermis, batch 4 (Ia+ Langerhans cells; dose 0.10 Nanog.): 399 cells per mm^2; Number of Ia+ cells per mm^2 of epidermis, Mean (Ia+ Langerhans cells; dose 0.10 Nanog.): 386.00 cells per mm^2; Ia+ cells % (Ia+ Langerhans cells; dose 0.10 Nanog.): 277%; Number of Ia+ cells per mm^2 of epidermis, batch 1 (Ia+ Langerhans cells; dose 0.50 Nanog.): 380 cells per mm^2; Number of Ia+ cells per mm^2 of epidermis, batch 2 (Ia+ Langerhans cells; dose 0.50 Nanog.): 388 cells per mm^2; Number of Ia+ cells per mm^2 of epidermis, batch 3 (Ia+ Langerhans cells; dose 0.50 Nanog.): 299 cells per mm^2; Number of Ia+ cells per mm^2 of epidermis, batch 4 (Ia+ Langerhans cells; dose 0.50 Nanog.): 388 cells per mm^2; Number of Ia+ cells per mm^2 of epidermis, Mean (Ia+ Langerhans cells; dose 0.50 Nanog.): 363.75 cells per mm^2; Ia+ cells % (Ia+ Langerhans cells; dose 0.50 Nanog.): 255%; Number of Ia+ cells per mm^2 of epidermis, batch 1 (Ia+ Langerhans cells; dose 1.00 Nanog.): 305 cells per mm^2; Number of Ia+ cells per mm^2 of epidermis, batch 2 (Ia+ Langerhans cells; dose 1.00 Nanog.): 400 cells per mm^2; Number of Ia+ cells per mm^2 of epidermis, batch 3 (Ia+ Langerhans cells; dose 1.00 Nanog.): 398 cells per mm^2; Number of Ia+ cells per mm^2 of epidermis, batch 4 (Ia+ Langerhans cells; dose 1.00 Nanog.): 410 cells per mm^2; Number of Ia+ cells per mm^2 of epidermis, Mean (Ia+ Langerhans cells; dose 1.00 Nanog.): 378.25 cells per mm^2; Ia+ cells % (Ia+ Langerhans cells; dose 1.00 Nanog.): 269% |
| A-Arg-Lys-Asp-Val-Tyr-NH2 (RKDVY; not fully specified (N-terminus, C-terminus)) [ETF-XV, A not specified for the tested sample; b149 names acetic acid-Arg-Lys-Asp-Val-Tyr-NH2] | 160 cells per mm^2 | 158 cells per mm^2 | 160 cells per mm^2 | 170 cells per mm^2 | 162.00 cells per mm^2 | 84% | 176 cells per mm^2 | 168 cells per mm^2 | 170 cells per mm^2 | 186 cells per mm^2 | 175.00 cells per mm^2 | 98% | 198 cells per mm^2 | 180 cells per mm^2 | 188 cells per mm^2 | 199 cells per mm^2 | 191.25 cells per mm^2 | 117% | 315 cells per mm^2 | 326 cells per mm^2 | Number of Ia+ cells per mm^2 of epidermis, batch 3 (Ia+ Langerhans cells; dose 0.10 Nanog.): 320 cells per mm^2; Number of Ia+ cells per mm^2 of epidermis, batch 4 (Ia+ Langerhans cells; dose 0.10 Nanog.): 330 cells per mm^2; Number of Ia+ cells per mm^2 of epidermis, Mean (Ia+ Langerhans cells; dose 0.10 Nanog.): 322.75 cells per mm^2; Ia+ cells % (Ia+ Langerhans cells; dose 0.10 Nanog.): 215%; Number of Ia+ cells per mm^2 of epidermis, batch 1 (Ia+ Langerhans cells; dose 0.50 Nanog.): 305 cells per mm^2; Number of Ia+ cells per mm^2 of epidermis, batch 2 (Ia+ Langerhans cells; dose 0.50 Nanog.): 345 cells per mm^2; Number of Ia+ cells per mm^2 of epidermis, batch 3 (Ia+ Langerhans cells; dose 0.50 Nanog.): 330 cells per mm^2; Number of Ia+ cells per mm^2 of epidermis, batch 4 (Ia+ Langerhans cells; dose 0.50 Nanog.): 345 cells per mm^2; Number of Ia+ cells per mm^2 of epidermis, Mean (Ia+ Langerhans cells; dose 0.50 Nanog.): 331.25 cells per mm^2; Ia+ cells % (Ia+ Langerhans cells; dose 0.50 Nanog.): 223%; Number of Ia+ cells per mm^2 of epidermis, batch 1 (Ia+ Langerhans cells; dose 1.00 Nanog.): 348 cells per mm^2; Number of Ia+ cells per mm^2 of epidermis, batch 2 (Ia+ Langerhans cells; dose 1.00 Nanog.): 360 cells per mm^2; Number of Ia+ cells per mm^2 of epidermis, batch 3 (Ia+ Langerhans cells; dose 1.00 Nanog.): 348 cells per mm^2; Number of Ia+ cells per mm^2 of epidermis, batch 4 (Ia+ Langerhans cells; dose 1.00 Nanog.): 350 cells per mm^2; Number of Ia+ cells per mm^2 of epidermis, Mean (Ia+ Langerhans cells; dose 1.00 Nanog.): 351.50 cells per mm^2; Ia+ cells % (Ia+ Langerhans cells; dose 1.00 Nanog.): 243% |
| A-Pyr-Ala-Lys-Ser-Gln-Gly-Gly-Ser-Asn-NH2 (AKSQGGSN; not fully specified (N-terminus, C-terminus); printed as A-Pyr-Ala-Lys-Ser-Gln-Gly-Gly-Ser-Asn-NH2) [ETF-I, A of the tested sample not restated] | 197 cells per mm^2 | 180 cells per mm^2 | 192 cells per mm^2 | 207 cells per mm^2 | 194.00 cells per mm^2 | 120% | 200 cells per mm^2 | 208 cells per mm^2 | 199 cells per mm^2 | 219 cells per mm^2 | 206.50 cells per mm^2 | 134% | 214 cells per mm^2 | 210 cells per mm^2 | 208 cells per mm^2 | 226 cells per mm^2 | 214.50 cells per mm^2 | 143% | 368 cells per mm^2 | 388 cells per mm^2 | Number of Ia+ cells per mm^2 of epidermis, batch 3 (Ia+ Langerhans cells; dose 0.10 Nanog.): 378 cells per mm^2; Number of Ia+ cells per mm^2 of epidermis, batch 4 (Ia+ Langerhans cells; dose 0.10 Nanog.): 395 cells per mm^2; Number of Ia+ cells per mm^2 of epidermis, Mean (Ia+ Langerhans cells; dose 0.10 Nanog.): 382.25 cells per mm^2; Ia+ cells % (Ia+ Langerhans cells; dose 0.10 Nanog.): 273%; Number of Ia+ cells per mm^2 of epidermis, batch 1 (Ia+ Langerhans cells; dose 0.50 Nanog.): 360 cells per mm^2; Number of Ia+ cells per mm^2 of epidermis, batch 2 (Ia+ Langerhans cells; dose 0.50 Nanog.): 392 cells per mm^2; Number of Ia+ cells per mm^2 of epidermis, batch 3 (Ia+ Langerhans cells; dose 0.50 Nanog.): 386 cells per mm^2; Number of Ia+ cells per mm^2 of epidermis, batch 4 (Ia+ Langerhans cells; dose 0.50 Nanog.): 399 cells per mm^2; Number of Ia+ cells per mm^2 of epidermis, Mean (Ia+ Langerhans cells; dose 0.50 Nanog.): 384.25 cells per mm^2; Ia+ cells % (Ia+ Langerhans cells; dose 0.50 Nanog.): 275%; Number of Ia+ cells per mm^2 of epidermis, batch 1 (Ia+ Langerhans cells; dose 1.00 Nanog.): 372 cells per mm^2; Number of Ia+ cells per mm^2 of epidermis, batch 2 (Ia+ Langerhans cells; dose 1.00 Nanog.): 410 cells per mm^2; Number of Ia+ cells per mm^2 of epidermis, batch 3 (Ia+ Langerhans cells; dose 1.00 Nanog.): 390 cells per mm^2; Number of Ia+ cells per mm^2 of epidermis, batch 4 (Ia+ Langerhans cells; dose 1.00 Nanog.): 412 cells per mm^2; Number of Ia+ cells per mm^2 of epidermis, Mean (Ia+ Langerhans cells; dose 1.00 Nanog.): 396.00 cells per mm^2; Ia+ cells % (Ia+ Langerhans cells; dose 1.00 Nanog.): 286% |
